{"source": "paper PMC10177727", "about": "(Clinical Drug Investigation, 2023)", "key": {"[1]": {"experiment": "Safety and tolerability: treatment-emergent adverse events", "assay_type": "in vivo, healthy Japanese adult participants"}, "CYP3A": {"target": "CYP3A (Homo sapiens, UniProt P08684)", "sequence (P08684 2-503)": "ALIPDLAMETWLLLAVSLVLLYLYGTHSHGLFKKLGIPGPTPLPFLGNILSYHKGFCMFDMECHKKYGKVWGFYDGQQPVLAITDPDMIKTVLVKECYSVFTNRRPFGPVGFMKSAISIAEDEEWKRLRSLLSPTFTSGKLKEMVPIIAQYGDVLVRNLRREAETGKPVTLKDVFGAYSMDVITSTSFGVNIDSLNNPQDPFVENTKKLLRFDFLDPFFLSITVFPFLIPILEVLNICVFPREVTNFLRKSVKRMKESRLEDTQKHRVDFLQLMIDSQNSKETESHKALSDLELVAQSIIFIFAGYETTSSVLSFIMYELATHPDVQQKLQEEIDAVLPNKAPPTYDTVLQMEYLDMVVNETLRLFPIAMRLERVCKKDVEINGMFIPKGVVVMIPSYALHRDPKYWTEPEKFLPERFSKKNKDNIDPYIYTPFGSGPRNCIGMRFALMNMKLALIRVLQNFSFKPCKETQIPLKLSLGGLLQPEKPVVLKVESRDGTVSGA", "details": "pre-clinical in vitro findings"}, "[2]": {"details": "ensitrelvir; cited from earlier work"}, "[3]": {"details": "Ensitrelvir 375/125 mg + midazolam, N = 14"}, "[4]": {"details": "Ensitrelvir 375/125 mg + midazolam, N = 14, listed as ensitrelvir"}, "[5]": {"details": "Ensitrelvir 750/250 mg + dexamethasone, N = 14"}, "[6]": {"details": "Ensitrelvir 750/250 mg + dexamethasone, N = 14, listed as ensitrelvir"}, "[7]": {"details": "Ensitrelvir 750/250 mg + prednisolone, N = 14"}}}
{"smiles": "Cn1cnc(Cn2c(=O)[nH]/c(=N\\c3cc4cn(C)nc4cc3Cl)n(Cc3cc(F)c(F)cc3F)c2=O)n1", "note": "[Ensitrelvir, Ensitrelvir fumaric acid]", "values": [{"measurement": "Arthropod sting, Events", "setting": "[1]; [3]", "result": 1}, {"measurement": "Arthropod sting, N (%)", "setting": "[1]; [3]", "result": "1 (7.1)"}, {"measurement": "Blood triglycerides increased, Events", "setting": "[1]; [3]", "result": 1}, {"measurement": "Blood triglycerides increased, N (%)", "setting": "[1]; [3]", "result": "1 (7.1)"}, {"measurement": "Blood triglycerides increased, events Related to ensitrelvir", "setting": "[1]; [3]", "result": 1}, {"measurement": "Diarrhea, Events", "setting": "[1]; [3]", "result": 1}, {"measurement": "Diarrhea, N (%)", "setting": "[1]; [3]", "result": "1 (7.1)"}, {"measurement": "Gastrointestinal disorders, Events", "setting": "[1]; [3]", "result": 1}, {"measurement": "Gastrointestinal disorders, N (%)", "setting": "[1]; [3]", "result": "1 (7.1)"}, {"measurement": "High-density lipoprotein decreased, Events", "setting": "[1]; [3]", "result": 8}, {"measurement": "High-density lipoprotein decreased, N (%)", "setting": "[1]; [3]", "result": "8 (57.1)"}, {"measurement": "High-density lipoprotein decreased, events Related to ensitrelvir", "setting": "[1]; [3]", "result": 8}, {"measurement": "Injury, poisoning and procedural complications, Events", "setting": "[1]; [3]", "result": 1}, {"measurement": "Injury, poisoning and procedural complications, N (%)", "setting": "[1]; [3]", "result": "1 (7.1)"}, {"measurement": "Investigations, Events", "setting": "[1]; [3]", "result": 9}, {"measurement": "Investigations, N (%)", "setting": "[1]; [3]", "result": "8 (57.1)"}, {"measurement": "Investigations, events Related to ensitrelvir", "setting": "[1]; [3]", "result": 9}, {"measurement": "Nervous system disorders, Events", "setting": "[1]; [3]", "result": 10}, {"measurement": "Nervous system disorders, N (%)", "setting": "[1]; [3]", "result": "9 (64.3)"}, {"measurement": "Nervous system disorders, events Related to ensitrelvir", "setting": "[1]; [3]", "result": 2}, {"measurement": "Participants with any TEAE, Events", "setting": "[1]; [3]", "result": 21}, {"measurement": "Participants with any TEAE, N (%)", "setting": "[1]; [3]", "result": "11 (78.6)"}, {"measurement": "Participants with any TEAE, events Related to ensitrelvir", "setting": "[1]; [3]", "result": 11}, {"measurement": "Somnolence, Events", "setting": "[1]; [3]", "result": 10}, {"measurement": "Somnolence, N (%)", "setting": "[1]; [3]", "result": "9 (64.3)"}, {"measurement": "Somnolence, events Related to ensitrelvir", "setting": "[1]; [3]", "result": 2}, {"measurement": "Arthropod sting, N (%)", "setting": "[1]; [4]", "result": 1}, {"measurement": "Blood triglycerides increased, N (%)", "setting": "[1]; [4]", "result": 1}, {"measurement": "Diarrhea, N (%)", "setting": "[1]; [4]", "result": 1}, {"measurement": "High-density lipoprotein decreased, N (%)", "setting": "[1]; [4]", "result": 8}, {"measurement": "Participants with any TEAE, N (%)", "setting": "[1]; [4]", "result": 11}, {"measurement": "Somnolence, N (%)", "setting": "[1]; [4]", "result": 9}, {"measurement": "Atrioventricular block, Events", "setting": "[1]; [5]", "result": 1}, {"measurement": "Atrioventricular block, N (%)", "setting": "[1]; [5]", "result": "1 (7.1)"}, {"measurement": "Blood triglycerides increased, Events", "setting": "[1]; [5]", "result": 4}, {"measurement": "Blood triglycerides increased, N (%)", "setting": "[1]; [5]", "result": "4 (28.6)"}, {"measurement": "Blood triglycerides increased, events Related to ensitrelvir", "setting": "[1]; [5]", "result": 3}, {"measurement": "Cardiac disorders, Events", "setting": "[1]; [5]", "result": 1}, {"measurement": "Cardiac disorders, N (%)", "setting": "[1]; [5]", "result": "1 (7.1)"}, {"measurement": "Dizziness, Events", "setting": "[1]; [5]", "result": 1}, {"measurement": "Dizziness, N (%)", "setting": "[1]; [5]", "result": "1 (7.1)"}, {"measurement": "Dizziness, events Related to ensitrelvir", "setting": "[1]; [5]", "result": 1}, {"measurement": "Headache, Events", "setting": "[1]; [5]", "result": 1}, {"measurement": "Headache, N (%)", "setting": "[1]; [5]", "result": "1 (7.1)"}, {"measurement": "Headache, events Related to ensitrelvir", "setting": "[1]; [5]", "result": 1}, {"measurement": "High-density lipoprotein decreased, Events", "setting": "[1]; [5]", "result": 5}, {"measurement": "High-density lipoprotein decreased, N (%)", "setting": "[1]; [5]", "result": "5 (35.7)"}, {"measurement": "High-density lipoprotein decreased, events Related to ensitrelvir", "setting": "[1]; [5]", "result": 5}, {"measurement": "Investigations, Events", "setting": "[1]; [5]", "result": 9}, {"measurement": "Investigations, N (%)", "setting": "[1]; [5]", "result": "7 (50.0)"}, {"measurement": "Investigations, events Related to ensitrelvir", "setting": "[1]; [5]", "result": 8}, {"measurement": "Nervous system disorders, Events", "setting": "[1]; [5]", "result": 2}, {"measurement": "Nervous system disorders, N (%)", "setting": "[1]; [5]", "result": "1 (7.1)"}, {"measurement": "Nervous system disorders, events Related to ensitrelvir", "setting": "[1]; [5]", "result": 2}, {"measurement": "Papule, Events", "setting": "[1]; [5]", "result": 1}, {"measurement": "Papule, N (%)", "setting": "[1]; [5]", "result": "1 (7.1)"}, {"measurement": "Papule, events Related to ensitrelvir", "setting": "[1]; [5]", "result": 1}, {"measurement": "Participants with any TEAE, Events", "setting": "[1]; [5]", "result": 13}, {"measurement": "Participants with any TEAE, N (%)", "setting": "[1]; [5]", "result": "9 (64.3)"}, {"measurement": "Participants with any TEAE, events Related to ensitrelvir", "setting": "[1]; [5]", "result": 11}, {"measurement": "Skin and subcutaneous tissue disorders, Events", "setting": "[1]; [5]", "result": 1}, {"measurement": "Skin and subcutaneous tissue disorders, N (%)", "setting": "[1]; [5]", "result": "1 (7.1)"}, {"measurement": "Skin and subcutaneous tissue disorders, events Related to ensitrelvir", "setting": "[1]; [5]", "result": 1}, {"measurement": "Atrioventricular block, N (%)", "setting": "[1]; [6]", "result": 1}, {"measurement": "Blood triglycerides increased, N (%)", "setting": "[1]; [6]", "result": 4}, {"measurement": "Dizziness, N (%)", "setting": "[1]; [6]", "result": 1}, {"measurement": "Headache, N (%)", "setting": "[1]; [6]", "result": 1}, {"measurement": "Papule, N (%)", "setting": "[1]; [6]", "result": 1}, {"measurement": "Participants with any TEAE, N (%)", "setting": "[1]; [6]", "result": 9}, {"measurement": "Atrioventricular block, Events", "setting": "[1]; [7]", "result": 0}, {"measurement": "Atrioventricular block, N (%)", "setting": "[1]; [7]", "result": 0}, {"measurement": "Atrioventricular block, events Related to ensitrelvir", "setting": "[1]; [7]", "result": 0}, {"measurement": "Blood triglycerides increased, Events", "setting": "[1]; [7]", "result": 0}, {"measurement": "Blood triglycerides increased, N (%)", "setting": "[1]; [7]", "result": 0}, {"measurement": "Blood triglycerides increased, events Related to ensitrelvir", "setting": "[1]; [7]", "result": 0}, {"measurement": "Cardiac disorders, Events", "setting": "[1]; [7]", "result": 0}, {"measurement": "Cardiac disorders, N (%)", "setting": "[1]; [7]", "result": 0}, {"measurement": "Cardiac disorders, events Related to ensitrelvir", "setting": "[1]; [7]", "result": 0}, {"measurement": "Dizziness, Events", "setting": "[1]; [7]", "result": 0}, {"measurement": "Dizziness, N (%)", "setting": "[1]; [7]", "result": 0}, {"measurement": "Dizziness, events Related to ensitrelvir", "setting": "[1]; [7]", "result": 0}, {"measurement": "Headache, Events", "setting": "[1]; [7]", "result": 0}, {"measurement": "Headache, N (%)", "setting": "[1]; [7]", "result": 0}, {"measurement": "Headache, events Related to ensitrelvir", "setting": "[1]; [7]", "result": 0}, {"measurement": "High-density lipoprotein decreased, Events", "setting": "[1]; [7]", "result": 14}, {"measurement": "High-density lipoprotein decreased, N (%)", "setting": "[1]; [7]", "result": "14 (100.0)"}, {"measurement": "High-density lipoprotein decreased, events Related to ensitrelvir", "setting": "[1]; [7]", "result": 14}, {"measurement": "Investigations, Events", "setting": "[1]; [7]", "result": 14}, {"measurement": "Investigations, N (%)", "setting": "[1]; [7]", "result": "14 (100.0)"}, {"measurement": "Investigations, events Related to ensitrelvir", "setting": "[1]; [7]", "result": 14}, {"measurement": "Nervous system disorders, Events", "setting": "[1]; [7]", "result": 0}, {"measurement": "Nervous system disorders, N (%)", "setting": "[1]; [7]", "result": 0}, {"measurement": "Nervous system disorders, events Related to ensitrelvir", "setting": "[1]; [7]", "result": 0}, {"measurement": "Papule, Events", "setting": "[1]; [7]", "result": 0}, {"measurement": "Papule, N (%)", "setting": "[1]; [7]", "result": 0}, {"measurement": "Papule, events Related to ensitrelvir", "setting": "[1]; [7]", "result": 0}, {"measurement": "Participants with any TEAE, Events", "setting": "[1]; [7]", "result": 14}, {"measurement": "Participants with any TEAE, N (%)", "setting": "[1]; [7]", "result": "14 (100.0)"}, {"measurement": "Participants with any TEAE, events Related to ensitrelvir", "setting": "[1]; [7]", "result": 14}, {"measurement": "Skin and subcutaneous tissue disorders, Events", "setting": "[1]; [7]", "result": 0}, {"measurement": "Skin and subcutaneous tissue disorders, N (%)", "setting": "[1]; [7]", "result": 0}, {"measurement": "Skin and subcutaneous tissue disorders, events Related to ensitrelvir", "setting": "[1]; [7]", "result": 0}, {"measurement": "Participants with any TEAE, N (%)", "setting": "[1]; Ensitrelvir 750/250 mg + prednisolone, N = 14, listed as ensitrelvir", "result": 14}, {"measurement": "serious TEAEs", "setting": "[1]; all cohorts", "result": "no serious TEAEs"}, {"measurement": "tolerability", "setting": "[1]; multiple-dose ensitrelvir with CYP3A substrates", "result": "well tolerated"}, {"measurement": "reversible inhibitory effect on CYP3A4", "setting": "CYP3A", "result": "no reversible inhibitory effect"}, {"measurement": "time-dependent inhibition of CYP3A", "setting": "CYP3A", "result": "time-dependent NADPH-mediated inhibition"}, {"measurement": "t1/2,z", "setting": "[2]", "result": "42.2 to 48.1", "unit": "h"}]}
